Test results: patent US10251394B2, “Molecules having pesticidal utility, and intermediates, compositions, and processes, related thereto” (Dow AgroSciences LLC, priority 2016, dated 2019)

How the values were obtained:
Assay type in all cases: in vivo
[1] = system: Beet Armyworm (Spodoptera exigua); test: Bioassay on Beet Armyworm (BAW), 128-well diet tray assay; settings: Beet Armyworm, Table ABC, read-out: BAW rating
Outline: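 Percent mortality, averaged over eight wells, was scored after five to seven days at 25° C under 14:10 light-dark. Each well's diet carried 50 μg/cm^2 of test molecule applied in acetone-water (90:10) and dried before one to five second-instar larvae were added.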

[2] = system: Cabbage Looper (Trichoplusia ni); test: Bioassay on Cabbage Looper (CL), 128-well diet tray assay; settings: Cabbage Looper, Table ABC, read-out: CL rating
Outline: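 Mortality after five to seven days at 25° C (14:10 photoperiod), averaged over eight wells per compound. Diet in each well carried 50 μg/cm^2 of dried test molecule and received one to five second-instar larvae.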

[3] = system: Yellow Fever Mosquito (Aedes aegypti); test: Bioassay on Yellow Fever Mosquito (YFM) larvae, 96-well plate; settings: Table ABC
Outline: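 About 1-day-old larvae in water with liver powder were added to wells holding compound from a 4000 ppm DMSO master diluted in 90:10 water:acetone. Plates covered and kept at room temperature for 3 days, then each well scored for mortality on a rating scale.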

How did the pest or weed control at 50 µg/cm2 [1] turn out when `C[C@@H](NC(=O)c1ccc(/C(F)=C/C(c2ccc(F)c(Cl)c2)C(F)(F)F)cc1C(F)(F)F)C(=O)NCC(F)(F)F` (stereo partly drawn) [F132, 4-((Z)-3-(3-Chloro-4-fluorophenyl)-1,4,4,4-tetrafluorobut-1-en-1-yl)-N—((R)-1-oxo-1-((2,2,2-trifluoroethyl)amino)propan-2-yl)-2-(trifluoromethyl)benzamide] was run?
Its pest or weed control at 50 µg/cm2 is 50 to 100%.

What about the pest or weed control at 50 µg/cm2 [2] of the same compound?
The pest or weed control at 50 µg/cm2 was 50 to 100%.

What about the YFM rating [3] of the same compound?
Its YFM rating is “B (More than 0-Less than 80)”.

What does the source list for `O=C(NC1(C(=O)NCC(F)(F)F)CC1)c1ccc(/C(F)=C/C(c2ccc(Cl)c(F)c2)C(F)(F)F)cc1C(F)(F)F` (stereo not drawn) [F136, (Z)-4-(3-(4-Chloro-3-fluorophenyl)-1,4,4,4-tetrafluorobut-1-en-1-yl)-N-(1-((2,2,2-trifluoroethyl)carbamoyl)cyclopropyl)-2-(trifluoromethyl)benzamide]?
pest or weed control at 50 µg/cm2 [1]: 50 to 100%; pest or weed control at 50 µg/cm2 [2]: 50 to 100%; YFM rating [3]: B (More than 0-Less than 80)

Which pest or weed control at 50 µg/cm2 [1] does the source give for `CN(CC(F)(F)F)C(=O)CNC(=O)c1ccc(/C(F)=C/C(c2cc(Cl)cc(Br)c2)C(F)(F)F)cc1C(F)(F)F` (stereo not drawn) [F137, (Z)-4-(3-(3-Bromo-5-chlorophenyl)-1,4,4,4-tetrafluorobut-1-en-1-yl)-N-(2-(methyl(2,2,2-trifluoroethyl)amino)-2-oxoethyl)-2-(trifluoromethyl)benzamide] here?
Its pest or weed control at 50 µg/cm2 is 50 to 100%.

And the pest or weed control at 50 µg/cm2 [2]?
Its pest or weed control at 50 µg/cm2 is 50 to 100%.

What about the YFM rating [3] of the same compound?
The YFM rating was “B (More than 0-Less than 80)”.

With `C[C@@H](NC(=O)c1ccc(/C(F)=C/C(c2ccc(Cl)c(Br)c2)C(F)(F)F)cc1C(F)(F)F)C(=O)NCC(F)(F)F` (stereo partly drawn) [F138, 4-((Z)-3-(3-Bromo-4-chlorophenyl)-1,4,4,4-tetrafluorobut-1-en-1-yl)-N—((R)-1-oxo-1-((2,2,2-trifluoroethyl)amino)propan-2-yl)-2-(trifluoromethyl)benzamide] as the compound, how does the pest or weed control at 50 µg/cm2 [1] read?
Its pest or weed control at 50 µg/cm2 is 50 to 100%.

What about the pest or weed control at 50 µg/cm2 [2] of the same compound?
Its pest or weed control at 50 µg/cm2 is 50 to 100%.

What about the YFM rating [3] of the same compound?
The YFM rating was “A (80-100)”.

Which results are given for `O=C(NC1(C(=O)NCC(F)(F)F)CC1)c1ccc(/C(F)=C/C(c2ccc(Cl)c(Br)c2)C(F)(F)F)cc1C(F)(F)F` (stereo not drawn) [F139, (Z)-4-(3-(3-Bromo-4-chlorophenyl)-1,4,4,4-tetrafluorobut-1-en-1-yl)-N-(1-((2,2,2-trifluoroethyl)carbamoyl)cyclopropyl)-2-(trifluoromethyl)benzamide]?
pest or weed control at 50 µg/cm2 [1]: 50 to 100%; pest or weed control at 50 µg/cm2 [2]: 50 to 100%; YFM rating [3]: A (80-100)

What does the source list for `C[C@@H](NC(=O)c1ccc(/C(F)=C/C(c2ccc(F)c(C(F)(F)F)c2)C(F)(F)F)cc1C(F)(F)F)C(=O)NCC(F)(F)F` (stereo partly drawn) [F141, N—((R)-1-Oxo-1-((2,2,2-trifluoroethyl)amino)propan-2-yl)-4-((Z)-1,4,4,4-tetrafluoro-3-(4-fluoro-3-(trifluoromethyl)phenyl)but-1-en-1-yl)-2-(trifluoromethyl)benzamide]?
pest or weed control at 50 µg/cm2 [1]: 50 to 100%; pest or weed control at 50 µg/cm2 [2]: 50 to 100%; YFM rating [3]: A (80-100)

`C[C@@H](NC(=O)c1ccc(/C(F)=C/C(c2cc(Cl)c(C(F)F)c(Cl)c2)C(F)(F)F)cc1C(F)(F)F)C(=O)NCC(F)(F)F` (stereo partly drawn) [F142, 4-((Z)-3-(3,5-Dichloro-4-(difluoromethyl)phenyl)-1,4,4,4-tetrafluorobut-1-en-1-yl)-N—((R)-1-oxo-1-((2,2,2-trifluoroethyl)amino)propan-2-yl)-2-(trifluoromethyl)benzamide] was tested. Which pest or weed control at 50 µg/cm2 [1] did it give?
Its pest or weed control at 50 µg/cm2 is 50 to 100%.

And the pest or weed control at 50 µg/cm2 [2]?
Its pest or weed control at 50 µg/cm2 is 50 to 100%.

And the YFM rating [3]?
The YFM rating was “A (80-100)”.

For `O=C(N[C@@H]1CON(CC(F)(F)F)C1=O)c1ccc(/C(F)=C/C(c2cc(Cl)c(C(F)F)c(Cl)c2)C(F)(F)F)cc1C(F)(F)F` (stereo partly drawn) [F143, 4-((2)-3-(3,5-Dichloro-4-(difluoromethyl)phenyl)-1,4,4,4-tetrafluorobut-1-en-1-yl)-N—((R)-3-oxo-2-(2,2,2-trifluoroethyl)isoxazolidin-4-yl)-2-(trifluoromethyl)benzamide], which pest or weed control at 50 µg/cm2 [1] is on record?
The pest or weed control at 50 µg/cm2 was 50 to 100%.

What about the pest or weed control at 50 µg/cm2 [2] of the same compound?
Its pest or weed control at 50 µg/cm2 is 50 to 100%.

And the YFM rating [3]?
The YFM rating was “A (80-100)”.
